Test results reported in US11566007B2, “Ras inhibitors” (Revolution Medicines, Inc., priority 2019, dated 2023).
Values joined by “and” are separate entries in the source; they are usually repeats but may differ in a detail not shown here. Equal entries are not always repeated.

How the values were obtained:
NRAS G12C = NRAS G12C (Homo sapiens (Human), UniProt P01111+P62937, G12C); assay: Ras-Raf (BRAF RBD) disruption / FRET / MOA assay, NRAS G12C; type: biochemical; conditions: read-out: IC50* NRAS G12C FRET data
In short: (§1)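 A 10-point, 3-fold dilution series topping at 30 μM final was incubated 3 h at 25° C with the Ras/cyclophilin A/BRAF RBD mixture.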

KRAS G12V = KRAS G12V (Homo sapiens (Human), UniProt P01116+P62937, G12V); assay: Ras-Raf (BRAF RBD) disruption / FRET / MOA assay, KRAS G12V; type: biochemical; conditions: read-out: IC50* KRAS G12V FRET data
In short: as §1

KRAS G13D = KRAS G13D (Homo sapiens (Human), UniProt P01116+P62937, G13D); assay: Ras-Raf (BRAF RBD) disruption / FRET / MOA assay, KRAS G13D; type: biochemical; conditions: read-out: IC50* KRAS G13D FRET data
In short: as §1

[1] = system: NCI-H358 cells (K-Ras G12C); assay: Potency assay: pERK in NCI-H358 cells; type: cell-based, human; conditions: Homo sapiens, NCI-H358; H358 KRAS G12C; read-out: pERK EC50
In short: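 Inhibition of cellular pERK after a 4 h treatment, detected by AlphaLISA or In-Cell Western. IC50 from a four-parameter concentration-response fit.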

KRAS G12D = KRAS G12D (Homo sapiens (Human), UniProt P01116+P62937, G12D); assay: Ras-Raf (BRAF RBD) disruption / FRET / MOA assay, KRAS G12D; type: biochemical; conditions: Ras-Raf disruption/FRET/MOA assay; class symbols; read-out: KRAS G12D FRET data IC50
In short: as §1

NRAS WT = NRAS WT (Homo sapiens (Human), UniProt P01111+P62937); assay: Ras-Raf (BRAF RBD) disruption / FRET / MOA assay, NRAS WT; type: biochemical; conditions: read-out: IC50* NRAS WT FRET data
In short: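 Compounds (30 μM top final, 10-point 3-fold dilutions) incubated 3 h at 25° C with nucleotide-loaded Ras, cyclophilin A and BRAF RBD. Detection with 10 nM anti-His Eu-W1024 and 50 nM anti-GST allophycocyanin over another 1.5 h. Lowered TR-FRET ratio relative to DMSO wells gives IC50.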

K-Ras G12C = K-Ras G12C (Homo sapiens (Human), UniProt P01116+P62937, G12C); assay: Ras-Raf (BRAF RBD) disruption / FRET / MOA assay, KRAS G12C; type: biochemical; conditions: KRAS G12C; Ras-Raf disruption/FRET/MOA assay; read-out: IC50* KRAS G12C FRET data
In short: as §1

Chain of KRAS G12V (P01116-2 other isoform, or with tags, fused parts or gaps G12V): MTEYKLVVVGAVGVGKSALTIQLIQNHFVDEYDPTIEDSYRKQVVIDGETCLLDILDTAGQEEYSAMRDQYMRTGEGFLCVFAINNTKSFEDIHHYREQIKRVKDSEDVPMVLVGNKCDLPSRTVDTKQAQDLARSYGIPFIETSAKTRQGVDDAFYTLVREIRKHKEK
Chain of KRAS G12V (P62937 whole entry): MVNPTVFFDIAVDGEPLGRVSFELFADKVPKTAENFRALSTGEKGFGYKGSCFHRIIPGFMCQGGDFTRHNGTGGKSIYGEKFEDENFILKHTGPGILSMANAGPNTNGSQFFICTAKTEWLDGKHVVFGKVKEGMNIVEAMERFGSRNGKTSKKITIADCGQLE
Chain of KRAS G13D (P01116-2 other isoform, or with tags, fused parts or gaps G13D): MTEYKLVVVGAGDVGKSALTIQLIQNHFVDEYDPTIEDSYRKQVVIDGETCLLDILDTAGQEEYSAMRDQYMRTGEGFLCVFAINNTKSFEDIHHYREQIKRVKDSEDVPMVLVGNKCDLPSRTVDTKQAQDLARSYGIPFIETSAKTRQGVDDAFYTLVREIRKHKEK
Chain of KRAS G13D (P62937 whole entry): as the sequence (P62937 whole entry) above
Chain of NRAS WT (P01111 whole entry): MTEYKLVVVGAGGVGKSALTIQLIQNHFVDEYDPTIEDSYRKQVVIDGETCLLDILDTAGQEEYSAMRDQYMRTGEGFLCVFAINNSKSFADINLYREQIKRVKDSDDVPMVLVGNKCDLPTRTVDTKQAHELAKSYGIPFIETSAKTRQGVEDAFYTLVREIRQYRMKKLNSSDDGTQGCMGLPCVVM
Chain of NRAS WT (P62937 whole entry): as the sequence (P62937 whole entry) above
Chain of KRAS G12D (P01116-2 other isoform, or with tags, fused parts or gaps G12D): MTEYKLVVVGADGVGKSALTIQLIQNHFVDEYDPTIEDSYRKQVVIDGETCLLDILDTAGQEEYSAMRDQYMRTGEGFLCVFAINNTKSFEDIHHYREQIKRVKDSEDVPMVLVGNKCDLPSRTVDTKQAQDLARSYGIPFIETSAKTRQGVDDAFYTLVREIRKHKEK
Chain of KRAS G12D (P62937 whole entry): as the sequence (P62937 whole entry) above
Chain of K-Ras G12C (P01116-2 other isoform, or with tags, fused parts or gaps G12C): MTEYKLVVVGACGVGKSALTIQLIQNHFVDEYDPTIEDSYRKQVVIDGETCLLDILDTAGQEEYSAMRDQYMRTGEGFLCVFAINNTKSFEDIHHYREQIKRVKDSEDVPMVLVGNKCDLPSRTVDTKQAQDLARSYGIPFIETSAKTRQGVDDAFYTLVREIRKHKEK
Chain of K-Ras G12C (P62937 whole entry): as the sequence (P62937 whole entry) above
Chain of NRAS G12C (P01111 whole entry G12C): as the sequence (P01111 whole entry) above, with G12C counted along it
Chain of NRAS G12C (P62937 whole entry): as the sequence (P62937 whole entry) above

SMILES	IC50 (NRAS G12C)	IC50 (KRAS G12V) [µM]	IC50 (KRAS G13D) [µM]	EC50 [1] [µM]	IC50 (KRAS G12D) [µM]	IC50 (NRAS WT) [µM]	IC50 (K-Ras G12C)
C=CC(=O)N1CC2(C1)OCCCN2C(=O)N(C)[C@H](C(=O)N[C@H]1Cc2nc(cs2)-c2ccc3c(c2)c(c(-c2cccnc2[C@H](C)OC)n3CC)CC(C)(C)COC(=O)[C@@H]2CCCN(N2)C1=O)C(C)C (atropisomer, axis not shown) [Example A735, 2-acryloyl-N-((2S)-1-(((6^3S,4S,Z)-1^1-ethyl-1^2-(2-((S)-1-methoxyethyl)pyridin-3-yl)-10,10-dimethyl-5,7-dioxo-6^1,6^2,6^3,6^4,6^5,6^6-hexahydro-1^1H-8-oxa-2(4,2)-thiazola-1(5,3)-indola-6(1,3)-pyridazinacycloundecaphane-4-yl)amino)-3-methyl-1-oxobutan-2-yl)-N-methyl-5-oxa-2,9-diazaspiro[3.5]nonane-9-carboxamide]	< 0.01 µM	> 10	> 10	< 5	> 10	1 to 10	< 0.01 µM
C=CC(=O)N(C)[C@@H]1C[C@H]1N(C)C(=O)N(C)[C@H](C(=O)N[C@H]1Cc2nc(cs2)-c2ccc3c(c2)c(c(-c2cccnc2[C@H](C)OC)n3CC)CC(C)(C)COC(=O)[C@@H]2CCCN(N2)C1=O)C(C)C (atropisomer, axis not shown) [Example A739]	0.1 to 1 µM	1 to 10	1 to 10	< 5	1 to 10	0.1 to 1	0.1 to 1 µM
C=CC(=O)N1CC[C@H](C(=O)N(C)[C@H](C(=O)N[C@H]2Cc3cccc(c3)-c3ccc4c(c3)c(c(-c3cnccc3[C@H](C)OC)n4CC)CC(C)(C)COC(=O)[C@@H]3CCCN(N3)C2=O)C(C)C)C1 (single isomer, unassigned) [Example A115]	0.01 to 0.1 µM and 0.1 to 1 µM	1 to 10	> 10	< 5	> 10	1 to 10	0.01 to 0.1 µM and 0.1 to 1 µM
C=CC(=O)N1CC[C@H](C(=O)N(C)[C@H](C(=O)N[C@H]2Cc3cc(O)cc(c3)-c3ccc4c(c3)c(c(-c3cc(N5CC(OC)C5)ccn3)n4CC)CC(C)(C)COC(=O)[C@@H]3CCCN(N3)C2=O)C(C)C)C1 [Example A104]	0.01 to 0.1 µM	1 to 10	1 to 10	< 5	> 10	1 to 10	0.01 to 0.1 µM
C=CC(=O)N1CC[C@H](C(=O)N(C)[C@H](C(=O)N[C@H]2Cc3cc(O)cc(c3)-c3ccc4c(c3)c(c(-c3cc(C#N)cnc3COC)n4CC)CC(C)(C)COC(=O)[C@@H]3CCCN(N3)C2=O)C(C)C)C1 [Example A105]	0.01 to 0.1 µM	0.1 to 1	0.1 to 1	< 5	1 to 10	0.1 to 1	0.01 to 0.1 µM
C=CC(=O)N1CC[C@H](C(=O)N(C)[C@H](C(=O)N[C@H]2Cc3cc(O)cc(c3)-c3ccc4c(c3)c(c(-c3cn(C)cn3)n4CC)CC(C)(C)COC(=O)[C@@H]3CCCN(N3)C2=O)C(C)C)C1 [Example A113]	0.1 to 1 µM	1 to 10	> 10	< 5	> 10	> 10	0.1 to 1 µM
C=CS(=O)(=O)N1CC[C@H](C(=O)N(C)[C@H](C(=O)N[C@H]2Cc3cc(O)cc(c3)-c3ccc4c(c3)c(c(-c3cncnc3)n4CC)CC(C)(C)COC(=O)[C@@H]3CCCN(N3)C2=O)C(C)C)C1 [Example A172]	0.01 to 0.1 µM	1 to 10	> 10	< 5	> 10	1 to 10	0.01 to 0.1 µM
CCn1c(-c2cccnc2[C@H](C)OC)c2c3cc(ccc31)-c1cccc(c1)C[C@H](NC(=O)[C@H](C(C)C)N1CC[C@@]3(CCN(C(=O)C#C[C@@H]4COCCN4C4COC4)C3)C1=O)C(=O)N1CCC[C@H](N1)C(=O)OCC(C)(C)C2 [Example A566]	0.01 to 0.1 µM	1 to 10	1 to 10	< 5	1 to 10	1 to 10	0.01 to 0.1 µM
C=CC(=O)N1CCC2(C1)CN(C(=O)N(C)[C@H](C(=O)N[C@H]1Cc3nc(cs3)-c3ccc4c(c3)c(c(-c3cccnc3[C@H](C)OC)n4CC(F)(F)F)CC(C)(C)COC(=O)[C@@H]3CCCN(N3)C1=O)C(C)C)C2 [Example A603]	0.01 to 0.1 µM	0.1 to 1	0.1 to 1	< 5	0.1 to 1	0.01 to 0.1	0.01 to 0.1 µM
CCn1c(-c2cccnc2[C@H](C)OC)c2c3cc(ccc31)-c1cccc(c1)C[C@H](NC(=O)[C@H](C(C)C)N(C)C(=O)N1CCC13CN(C(=O)C#CC(C)(C)N(C)C)C3)C(=O)N1CCC[C@H](N1)C(=O)OCC(C)(C)C2 [Example A672]	0.01 to 0.1 µM	0.1 to 1	0.1 to 1	< 5	1 to 10	0.1 to 1	0.01 to 0.1 µM
C=CC(=O)N(C)[C@H]1CC1N(C)C(=O)N(C)[C@H](C(=O)N[C@H]1Cc2nc(cs2)-c2ccc3c(c2)c(c(-c2cccnc2[C@H](C)OC)n3CC)CC(C)(C)COC(=O)[C@@H]2CCCN(N2)C1=O)C(C)C (some centres unmarked) [Example A738]	0.1 to 1 µM	1 to 10	1 to 10	< 5	1 to 10	0.1 to 1	0.1 to 1 µM
